# Experimental data taken from publication PMC4846432 (Science Advances, 2016).
# Key:
# mouse P-gp [1] = target: T1, mouse P-gp (Mus musculus, UniProt P21447, N83Q/N87Q/N90Q); experiment: Yeast chemosensitization; assay type: cell-based; settings: for IYeast, inhibition in the yeast cytotoxicity assay: P-gp-expressing yeast, +10 μM DOX; for Chemosensitizing effect on P-gp-expressing yeast toward DOX (in words): cellular assay
# mouse P-gp [2] = target: T1, mouse P-gp; experiment: biochemical
# mouse P-gp [3] = target: T1, mouse P-gp; settings: endrin vs its stereoisomer dieldrin
# T1 sequence (P21447 whole entry N83Q/N87Q/N90Q): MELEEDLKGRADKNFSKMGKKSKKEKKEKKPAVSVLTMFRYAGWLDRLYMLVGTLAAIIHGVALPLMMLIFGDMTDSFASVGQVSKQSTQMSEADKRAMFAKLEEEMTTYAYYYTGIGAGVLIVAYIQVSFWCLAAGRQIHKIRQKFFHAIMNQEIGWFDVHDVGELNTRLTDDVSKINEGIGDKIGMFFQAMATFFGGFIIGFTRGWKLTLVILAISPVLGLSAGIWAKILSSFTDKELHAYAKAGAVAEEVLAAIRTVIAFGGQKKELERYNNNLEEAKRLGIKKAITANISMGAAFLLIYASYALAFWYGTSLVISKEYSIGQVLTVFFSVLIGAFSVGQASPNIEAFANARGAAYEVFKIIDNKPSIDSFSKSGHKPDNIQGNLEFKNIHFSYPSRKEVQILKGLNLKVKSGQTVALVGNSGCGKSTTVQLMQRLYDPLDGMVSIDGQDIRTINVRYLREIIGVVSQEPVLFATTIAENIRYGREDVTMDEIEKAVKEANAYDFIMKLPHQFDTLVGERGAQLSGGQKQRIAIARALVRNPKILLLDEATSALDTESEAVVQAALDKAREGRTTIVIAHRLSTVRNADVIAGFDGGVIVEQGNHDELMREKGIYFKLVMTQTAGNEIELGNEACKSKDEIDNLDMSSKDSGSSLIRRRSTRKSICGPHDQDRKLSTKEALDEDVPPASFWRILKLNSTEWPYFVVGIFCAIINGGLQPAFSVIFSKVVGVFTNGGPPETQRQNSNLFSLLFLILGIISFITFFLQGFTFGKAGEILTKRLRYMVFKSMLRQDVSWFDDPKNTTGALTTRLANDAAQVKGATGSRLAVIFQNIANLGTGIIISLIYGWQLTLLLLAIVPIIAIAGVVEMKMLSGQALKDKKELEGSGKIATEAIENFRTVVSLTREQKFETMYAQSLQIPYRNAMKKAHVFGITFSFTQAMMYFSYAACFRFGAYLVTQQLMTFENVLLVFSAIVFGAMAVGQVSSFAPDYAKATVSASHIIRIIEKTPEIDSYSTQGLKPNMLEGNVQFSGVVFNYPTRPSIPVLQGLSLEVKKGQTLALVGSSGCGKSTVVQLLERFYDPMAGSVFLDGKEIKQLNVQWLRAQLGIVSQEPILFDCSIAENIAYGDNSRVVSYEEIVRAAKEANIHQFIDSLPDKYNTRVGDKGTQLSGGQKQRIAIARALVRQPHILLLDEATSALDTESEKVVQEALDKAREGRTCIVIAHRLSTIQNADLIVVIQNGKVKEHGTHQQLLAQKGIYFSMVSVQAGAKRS
Structure (SMILES),"IYeast, inhibition in the yeast cytotoxicity assay (mouse P-gp [1])",IC50 (mouse P-gp [2]) [µM],Chemosensitizing effect on P-gp-expressing yeast toward DOX (in words) (mouse P-gp [1]),Potency in ATPase assay relative to dieldrin (mouse P-gp [3]) [times]
"ClC(Cl)=C(c1ccc(Cl)cc1)c1ccc(Cl)cc1 [4,4′-DDE, dichlorodiphenyldichloroethylene]",Y,31.3,–,–
ClC1=C(Cl)C2(Cl)C3C4C=CC(C4)C3C1(Cl)C2(Cl)Cl (stereo not shown) [Aldrin],Y,26.2,–,–
CC(C)(c1ccc(O)cc1)c1ccc(O)cc1 [Bisphenol A],N,–,–,–
"CCCCC(CC)COC(=O)c1ccccc1C(=O)OCC(CC)CCCC (stereo not shown) [DEHP, di(2-ethylhexyl)phthalate]",N,–,–,–
ClC1=C(Cl)[C@]2(Cl)[C@@H]3[C@@H]4C[C@@H]([C@H]5O[C@@H]45)[C@@H]3[C@@]1(Cl)C2(Cl)Cl [Dieldrin],Y,21.8,markedly lower inhibitory effect,–
ClC1=C(Cl)C2(Cl)C3C4CC(C5OC45)C3C1(Cl)C2(Cl)Cl (stereo not shown) [Endrin],Y,1.1,most pronounced chemosensitizing effect,~20
ClC1=C(Cl)C2(Cl)C3C(Cl)C=CC3C1(Cl)C2(Cl)Cl (stereo not shown) [Heptachlor],N,10.4,–,–
COc1ccc(C(c2ccc(OC)cc2)C(Cl)(Cl)Cl)cc1 [Methoxychlor],N,21.7,–,–
ClC1(Cl)C2(Cl)C3(Cl)C4(Cl)C(Cl)(Cl)C5(Cl)C3(Cl)C1(Cl)C5(Cl)C24Cl (stereo not shown) [Mirex],N,3,–,–
Brc1ccc(Oc2ccccc2)cc1 [PBDE-3],N,–,–,–
Brc1ccc(Oc2cc(Br)ccc2Br)c(Br)c1 [PBDE-49],Y,–,–,–
Brc1ccc(Oc2c(Br)cc(Br)cc2Br)c(Br)c1 [PBDE-100],Y,23.2,–,–
Brc1c(Br)c(Br)c(Oc2c(Br)c(Br)c(Br)c(Br)c2Br)c(Br)c1Br [PBDE-209],N,–,–,–
Clc1ccc(-c2cc(Cl)c(Cl)cc2Cl)cc1Cl [PCB-118],N,–,–,–
Clc1ccccc1-c1c(Cl)c(Cl)c(Cl)c(Cl)c1Cl [PCB-142],Y,–,–,–
Clc1cc(Cl)c(-c2c(Cl)cccc2Cl)c(Cl)c1Cl [PCB-145],Y,–,–,–
Clc1ccc(-c2c(Cl)c(Cl)cc(Cl)c2Cl)c(Cl)c1 [PCB-147],Y,–,–,–
Clc1cc(Cl)c(Cl)c(-c2c(Cl)cccc2Cl)c1Cl [PCB-152],N,–,–,–
Clc1cc(Cl)c(-c2cc(Cl)c(Cl)cc2Cl)cc1Cl [PCB-153],N,–,–,–
Clc1cc(Cl)c(-c2cc(Cl)c(Cl)cc2Cl)c(Cl)c1 [PCB-154],N,–,–,–
Clc1cc(Cl)cc(-c2c(Cl)cc(Cl)c(Cl)c2Cl)c1 [PCB-161],N,–,–,–
Clc1cc(Cl)c(-c2cc(Cl)c(Cl)c(Cl)c2)c(Cl)c1 [PCB-168],N,–,–,–
Clc1cc(-c2cc(Cl)c(Cl)c(Cl)c2)cc(Cl)c1Cl [PCB-169],N,–,–,–
Clc1cccc(Cl)c1-c1c(Cl)c(Cl)c(Cl)c(Cl)c1Cl [PCB-186],N,–,–,–
"O=C(O)C(F)(F)C(F)(F)C(F)(F)C(F)(F)C(F)(F)C(F)(F)C(F)(F)F [PFOA, perfluorooctanoic acid]",N,156,–,–
"O=S(=O)(O)C(F)(F)C(F)(F)C(F)(F)C(F)(F)C(F)(F)C(F)(F)C(F)(F)C(F)(F)F [PFOS, perfluorooctane sulfonate]",N,–,–,–
"Cl[C@H]1[C@H](Cl)[C@H](Cl)[C@@H](Cl)[C@H](Cl)[C@H]1Cl [α-HCH, α-hexachlorocyclohexane]",N,26.8,–,–
"Cl[C@H]1[C@H](Cl)[C@@H](Cl)[C@H](Cl)[C@@H](Cl)[C@@H]1Cl [β-HCH, β-hexachlorocyclohexane]",N,–,–,–
"Cl[C@H]1[C@H](Cl)[C@@H](Cl)[C@@H](Cl)[C@H](Cl)[C@H]1Cl [γ-HCH (lindane), lindane]",N,82.6,–,–
